# Patent US8202899B2, “Pyrazole urea derivatives used as kinase inhibitors” (Array BioPharma Inc., priority 2007, dated 2012)
# Like-named read-outs stand apart in the source and are kept apart here.
# What was measured:
# [1] = Solubility Assay (modified shake flask method); assay type: physicochemical
# Procedure: The solubility of each of the compounds of Examples 1 and 2 were tested at pHs 1.2, 6.5 and 7.4 using a modified shake flask method. The compounds were received as 1.6 mg/mL stock solutions in DMSO. Aqueous unknowns were prepared at final concentrations of 16 μg/mL and 32 μg/mL, with each aqueous unknown containing 1% or 2% DMSO, respectively. The aqueous samples were quantitated against organic standards prepared in MeOH (with 1% DMSO in the high standard (16 μg/mL). UV 220 nm and UV 254 nm area were used for quantitation.
# activated p38α enzyme = activated p38α enzyme (Homo sapiens, UniProt Q16539); experiment: p38 Biochemical Assay
# Procedure: p38 activity was assayed at room temperature in a 100 μL reaction containing 5 nM activated p38α enzyme and 1 μM ATF-2 (Activating Transcription Factor 2 fusion protein) as the substrate in […] HEPES (pH 7.4), 100 μM Vanadate, 1 mM :DTT, 10 mM MgCl2 and 10 μM [γ-^33P]-ATP (˜0.1 μCi P^33/reaction). The reaction was terminated after 30-40 minutes by adding 25% TCA, allowed to stand for 5 minutes, and then transferred directly to a GF-B membrane filter plate. The filter was washed twice for 30 seconds with 0.5% phosphoric acid using a Tomtec Mach III Automated Harvestor. After washing, the vacuum was continued for 30 seconds to dry the filter. Approximately 30 μL of scintillant was added per well to the filter plate and then read in a Liquid Scintillation Counter (Packard TopCount HTS).
# [2] = tested on: TNF-α production in whole blood treated with LPS; experiment: Human Whole Blood TNF-α Assay; assay type: cell-based; conditions: inhibition of LPS-induced TNF-α production, ELISA, read-out: apparent IC50
# Procedure: In a functional cell assay, the compound of Examples 1 and 2 were tested for their ability to inhibit TNF-α production in whole blood treated with bacterial lipopolysaccharide (LPS) to induce cytokine production (as detected by ELISA).
# Compound test solutions were made by making 3.33 fold serial dilutions in DMSO, which dilutions were then diluted to 5× stocks by diluting with MEM, 2% heat inactivated fetal bovine serum (“MS”), 20 mM HEPES, 2 mM L-glutamine, and 1% penicillin/streptomycin
# Whole blood was collected from human volunteers using sodium heparin Vacutainer™ tubes and processed within two hours of collection. Blood was diluted 3-fold with Whole Blood (WB) medium (RPMI 1640, 2% heat inactivated fetal bovine serum, 20 mM HEPES, 2 mM L-glutamine, and 1% penicillin/streptomycin). 100 μL of diluted blood was added to each well of a 96-well cell culture plate, followed by 30 μL of a compound test solution.
# After a one-hour incubation at 37° C./5% CO2, 20 μL of 7.5 ng/mL lipopolysaccharide (E. coli K-235, Sigma L2018) was added to each well. The cells were incubated again at 37° C./5% CO2 for 16-20 hours. […]
# Briefly, test compound supernatants were added to wells of a 96-well plate that were coated with antibody to human TNF-α (R&D Systems, MAB210) and incubated at room temperature for at least one hour. […] The absorbance at 405 nm was then read.
# Sequence of activated p38α enzyme (Q16539 whole entry, the tested form may be a part): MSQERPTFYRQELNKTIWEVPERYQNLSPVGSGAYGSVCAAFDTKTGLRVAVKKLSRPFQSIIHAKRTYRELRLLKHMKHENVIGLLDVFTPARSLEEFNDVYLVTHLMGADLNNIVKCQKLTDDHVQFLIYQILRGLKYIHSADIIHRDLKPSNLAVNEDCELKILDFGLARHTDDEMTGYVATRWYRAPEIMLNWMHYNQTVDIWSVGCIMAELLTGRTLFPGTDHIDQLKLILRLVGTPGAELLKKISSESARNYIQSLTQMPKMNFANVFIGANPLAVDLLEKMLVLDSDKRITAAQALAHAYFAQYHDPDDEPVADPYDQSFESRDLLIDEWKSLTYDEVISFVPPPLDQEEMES
"solubility ([1]; aqueous solution (pH 7.4), aqueous buffer, pH 7.4, starting conc. 1000 μg/mL, read-out: Solubility pH 7.4) [µg/mL]",IC50 [2] [nM],"solubility ([1]; aqueous sample containing 1% DMSO, aqueous buffer, kinetic from dmso stock, pH 6.5, starting conc. 16 μg/mL (with 1% DMSO), read-out: Solubility pH 6.5) [µg/mL]","solubility ([1]; aqueous sample containing 1% DMSO, aqueous buffer, kinetic from dmso stock, pH 7.4, starting conc. 16 μg/mL (with 1% DMSO), read-out: Solubility pH 7.4) [µg/mL]","solubility ([1]; aqueous sample containing 1% DMSO, simulated gastric fluid, kinetic from dmso stock, pH 1.2, starting conc. 16 μg/mL (with 1% DMSO), read-out: Solubility pH 1.2) [µg/mL]","solubility ([1]; aqueous sample containing 2% DMSO, aqueous buffer, kinetic from dmso stock, pH 6.5, starting conc. 32 μg/mL (with 2% DMSO), read-out: Solubility pH 6.5) [µg/mL]","solubility ([1]; aqueous sample containing 2% DMSO, aqueous buffer, kinetic from dmso stock, pH 7.4, starting conc. 32 μg/mL (with 2% DMSO), read-out: Solubility pH 7.4) [µg/mL]","solubility ([1]; aqueous sample containing 2% DMSO, simulated gastric fluid, kinetic from dmso stock, pH 1.2, starting conc. 32 μg/mL (with 2% DMSO), read-out: Solubility pH 1.2) [µg/mL]",aqueous solubility compared to the compound of Example 138 of WO 2004/078116 ([1]; at pH 6.5 and 7.4),Compound,p38 inhibition potency compared to the compound of Example 138 of WO 2004/078116 (activated p38α enzyme)
0.045,–,–,–,–,–,–,–,–,"Cn1nc(C(C)(C)C)cc1NC(=O)NCc1cc(F)ccc1Oc1ccc2c(cnn2CC(C)(C)O)c1 [Example 138, reference compound]",–
–,1.9,–,–,–,–,–,–,–,"CC(C)(C)c1cc(NC(=O)NCc2cc(F)ccc2Oc2ccc3c(cnn3CCO)c2)n(-c2ccc(CO)cc2)n1 [Example 2, 1-(3-tert-butyl-1-(4-(hydroxymethyl)phenyl)-1H-pyrazol-5-yl)-3-(5-fluoro-2-(1-(2-hydroxymethyl)-1H-indazol-5-yloxy)benzyl)urea]",significantly more potent inhibitor of p38
–,447,0.75,0.7,7.9,1.8,1.7,18.8,improved aqueous solubility,Cc1ccc(-n2nc(C(C)(C)CO)cc2NC(=O)NCc2cc(F)ccc2Oc2ccc3c(cnn3CCO)c2)cc1 [Example 1],–
